Assay results: patent publication US8551952B2, “Methods for the treatment and prevention of ocular disorders” (Scynexis, Inc., priority 2006, dated 2013)
Like-named read-outs stand apart in the source and are kept apart here.

How the values were obtained:
TNF-α = conditions: read-out: Approximate IC50 for cytokine production TNF-α; human T-lymphocytes stimulated with anti-CD3/anti-CD28 beads, 24 hours; average of cultures of two donors
Protocol: (§1) Assays with human cells are used to determine if compounds I) inhibit T-cell activation (using cytokine release as a biomarker), and 2) reduce or prevent cytokine-induced pathologies.
(§2) Compounds were incubated with stimulated human T-lymphocytes in an in vitro system designed to measure cytokine production; cytokine production is indicative of T-cell activation and consequential cytokine-induced damage in vivo. […] Cells were treated in triplicate with compounds or vehicle (DMSO) in cell culture medium for 2 hours at 37 deg C. Cells were then stimulated with 5 μL of anti-CD3/anti-CD28 ExpandBeads (DynaBeads, Invitrogen 111.31) and incubated for 24 hours. Compounds were tested at three concentrations: 0.02, 0.2 and 2 μM. Untreated controls were performed for each cytokine marker. The following cytokines were quantitatively determined using specific ELISA kits, according to manufacturer instructions: IL2 (Eli-pair, Diaclone), IL4 (ImmunoTools 313.300.49), tumor necrosis factor alpha (TNFα, ImmunoTools 313.330.1), and Interferon gamma (IFN-γ) Eli-pair, Diaclone).

IL4 = conditions: read-out: Approximate IC50 for cytokine production IL4; human T-lymphocytes stimulated with anti-CD3/anti-CD28 beads, 24 hours; average of cultures of two donors
Protocol: as §1, §2

IL2 = conditions: read-out: Approximate IC50 for cytokine production IL2; human T-lymphocytes stimulated with anti-CD3/anti-CD28 beads, 24 hours; average of cultures of two donors
Protocol: as §1, §2

IFN-γ = conditions: read-out: Approximate IC50 for cytokine production IFN-γ; human T-lymphocytes stimulated with anti-CD3/anti-CD28 beads, 24 hours; average of cultures of two donors
Protocol: as §1, §2

[1] = system: T-cell proliferation (T-cells isolated from mouse spleens); conditions: read-out: IC50 MLR; C57BL/6 responder and irradiated BALB/c stimulator spleen cells, 5 days
Protocol: Murine Mixed Lymphocyte Response (MLR) assay: This assay monitored T-cell proliferation by measurement of tritiated thymidine incorporation into DNA of T-cells isolated from mouse spleens; T-cell proliferation is directly proportional to tritium incorporation into DNA. Pooled spleen cells were prepared from three mice each of two strains: three C57BL/6 and three BALB/c mice. The C57BL/6 mice were used as the Responders (R) and BALB mice were the Stimulators (S) in the MLR. Complete medium consisted of RPMI 1640 supplemented with 25 mM HEPES, 10% heat-inactivated low background fetal bovine serum, 50 μM 2-mercatoethanol, 2 mM L-glutamine, and antibiotics.
The BALB/c spleen cells were gamma irradiated at 3000 Roentgen in a Bevill irradiator and washed once with medium to use as S cells; the stock of S cells was 1.6×10^6/mL in complete medium. The R cells were stocked at 8×10^5/mL in complete medium. Final cell densities were 2×10^5 R and 4×10^5 S per test well in a 96-well microtiter plate. Compounds were diluted from a 10 mM stock solution in DMSO into culture medium; compounds were tested at 10 concentrations between 0.001 and 30 μM (three-fold dilutions).
Background control wells contained 150 μL of medium/0.3% DMSO and 50 μL of R cells (2×10^5/well). All other wells contained 100 μL of medium/0.3% DMSO or compound (also in 0.3% DMSO), 50 μL of R cells (2×10^S/well), and 50 μL of S cells (4×10^5/well). Plates were incubated at 37° C. in 5% CO2 for 5 days, and subsequently pulsed with 1 μCi/well of 3H-thymidine for 6-18 hours. Cells were harvested, and tritium incorporation was measured using a scintillation counter.

[2] = system: chorio-allantoic membranes (CAM) of fertilized chicken eggs; conditions: for Classification: HET-CAM classification of irritation potential; for Total Score: HET-CAM, sum of scores, average across eggs
Protocol: In this test, chorio-allantoic membranes (CAM) of fertilized chicken eggs are exposed to a solution of the test substance in sterile water. During an incubation period of approximately 5 minutes, irritancy is assessed by visual inspection of the CAM blood vessel network for haemorrhage, lysis and/or coagulation. The time of onset or appearance of each of these effects is scored numerically, the scores are summed to give a single numerical value, and an average numerical score across several eggs is obtained.

[3] = artificial tear formulation
Protocol: The solubilities of compounds in artificial tear formulations were determined using turbidimetric titration (Schote, et al., 2002. J Pharm Sciences 91(3):856). The different tear formulations are buffered and contain various physiological electrolytes including, sodium, potassium, phosphate, and chloride. The formulations differ primarily in the “active” ingredients that provide lubrication and viscosity.

eyes of rabbits = conditions: 0.05% (w/w) in an artificial tear formulation, instillation in right eyes over three days
Protocol: The compounds of the invention were evaluated for tolerability upon instillation in the eyes of rabbits over a three day test period. Rabbits receive five instillations within 20 minutes of fifty microliters of a solution of the test substance in vehicle once on Day 1, twice on Day 2 and four times on Day 3 in the right eyes. Evaluation of ocular irritancy was performed using the Draize scale (Draize et al. J. Pharmacol. Exp. Ther. 1944. 82: 377).

[4] = HET-CAM score, approximately 5 minutes incubation

Compound	IC50 (TNF-α) [µM]	IC50 (IL4) [µM]	IC50 (IL2) [µM]	IC50 (IFN-γ) [µM]	IC50 [1] [µM]	Classification [2]	Coagulation [2, 4]	Haemorhage [2, 4]	Lysis [2, 4]	Total Score [2]	Minimum Solubility ([3]; pH 6.2, Polyethylene glycol 400 (1%), Polyvinyl alcohol (1%)) [µM]	Minimum Solubility ([3]; pH 6.7 (adjusted with HCl from 7.4), Dextran 70 (0.1%), Hydroxypropyl methyl-cellulose 2910 (0.3%)) [µM]	Minimum Solubility ([3]; pH 6.8, Carboxymethylcellulose sodium (0.5%)) [µM]	Minimum Solubility ([3]; pH 7.3, Propylene Glycol (0.95%), Glycerin (0.3%)) [µM]	Minimum Solubility ([3]; pH 7.4, Dextran 70 (0.1%), Hydroxypropyl methyl-cellulose 2910 (0.3%)) [µM]	Ocular tolerability (Draize scale) (eyes of rabbits)
CC=CCC(C)C(O)C1C(=O)NC(CC)C(=O)N(C)C(OCCN2CCCCC2)C(=O)N(C)C(CC(C)C)C(=O)NC(C(C)C)C(=O)N(C)C(CC(C)C)C(=O)NC(C)C(=O)NC(C)C(=O)N(C)C(CC(C)C)C(=O)N(C)C(CC(C)C)C(=O)N(C)C(C(C)C)C(=O)N1C (stereo not shown) [D, 3-[2-(piperidin-1-yl)ethoxy]cyclosporin]	~2	~2	~1	~1	0.2	Slightly irritant	0	0	3	3.0						
3-[2-(morpholin-4-yl)ethoxy]cyclosporin [F]	~0.2	~0.2	~0.02	~0.2	0.5											
C/C=C/C[C@@H](C)[C@@H](O)[C@H]1C(=O)N[C@@H](CC)C(=O)N(C)C(OCCN(C)C)C(=O)N(C)[C@@H](CC(C)C)C(=O)N[C@@H](C(C)C)C(=O)N(C)[C@@H](CC(C)C)C(=O)N[C@@H](C)C(=O)N[C@H](C)C(=O)N(C)[C@@H](CC(C)C)C(=O)N(C)[C@@H](CC(C)C)C(=O)N(C)[C@@H](C(C)C)C(=O)N1C (stereo partly shown) [Compound A, 3-[2-(N,N-dimethylamino)ethoxy]cyclosporin]	~2	~2		~2	0.2	Slightly irritant			3.5	3.5	151	350	130	117	141	very well tolerated
